In patent US20040171086A1, “Selective modulation of TLR-mediated biological activity” (3M Innovative Properties Company, priority 2003, published 2004):

Legend:
TLR7 [1] = molecular target: T1, TLR7 (Homo sapiens, UniProt Q9NYK1); assay: IFN-α1-luciferase reporter assay in genetically modified Namalwa cells, TLR7; format: cell-based; design: expressed in transfected cells; host or cells: Namalwa (ATCC CRL-1432); conditions: 10 μM IRM, 18 hours
T1 sequence (Q9NYK1 27-1049): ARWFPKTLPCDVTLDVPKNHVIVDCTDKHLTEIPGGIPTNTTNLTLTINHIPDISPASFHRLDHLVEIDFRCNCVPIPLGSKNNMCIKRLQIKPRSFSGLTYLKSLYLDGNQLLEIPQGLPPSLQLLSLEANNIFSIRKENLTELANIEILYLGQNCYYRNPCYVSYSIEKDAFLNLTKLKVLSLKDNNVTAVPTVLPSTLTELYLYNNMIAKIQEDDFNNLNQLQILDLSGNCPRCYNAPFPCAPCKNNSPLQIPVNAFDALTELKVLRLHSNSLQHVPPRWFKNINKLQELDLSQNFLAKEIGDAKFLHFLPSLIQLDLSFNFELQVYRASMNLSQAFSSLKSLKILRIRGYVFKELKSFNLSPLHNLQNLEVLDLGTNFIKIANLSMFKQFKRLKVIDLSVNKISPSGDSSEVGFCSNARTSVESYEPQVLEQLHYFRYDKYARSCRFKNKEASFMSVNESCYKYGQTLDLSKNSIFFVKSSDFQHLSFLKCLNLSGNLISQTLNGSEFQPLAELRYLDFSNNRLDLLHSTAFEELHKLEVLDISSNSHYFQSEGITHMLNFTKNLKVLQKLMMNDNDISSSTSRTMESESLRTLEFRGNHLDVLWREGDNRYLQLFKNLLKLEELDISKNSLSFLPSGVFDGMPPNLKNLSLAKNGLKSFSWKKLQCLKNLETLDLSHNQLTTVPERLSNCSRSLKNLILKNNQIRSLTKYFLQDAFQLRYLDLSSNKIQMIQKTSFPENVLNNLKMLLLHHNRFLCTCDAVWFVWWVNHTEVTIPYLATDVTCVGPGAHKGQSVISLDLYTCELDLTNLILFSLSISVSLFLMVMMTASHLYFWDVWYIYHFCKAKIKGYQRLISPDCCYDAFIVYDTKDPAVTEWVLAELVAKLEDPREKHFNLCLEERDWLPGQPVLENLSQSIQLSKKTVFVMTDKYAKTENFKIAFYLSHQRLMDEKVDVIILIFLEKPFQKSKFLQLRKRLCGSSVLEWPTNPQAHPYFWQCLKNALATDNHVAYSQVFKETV
Procedure: Results are shown in Table 6 and are expressed as fold induction of IFN-α1 —induced luciferase signal, again with respect to a vehicle control.
The assay identified TLR6-selective compounds (i.e., compounds that modulate TLR6-mediated activity, but not TLR7-mediated activity), TLR7-selective compounds (compounds that modulate TLR7-mediated activity, but not TLR6-mediated activity), and compounds that modulate cellular activity through both TLR6 and TLR7.
Unless otherwise indicated, all incubations were performed at 37° C. with 5% CO2 at 98% humidity.
Culture medium was prepared from complete RPMI 1640 medium (BioSource International, Inc., Camarillo, Calif.). Fetal bovine serum (Atlas Biologicals, Inc., Ft. Collins, Colo.) was added to a final concentration of 7.5% (vol/vol); L-glutamine (BioSource International, Inc.) was added to 5 mM; and sodium pyruvate (BioSource International, Inc.) was added to 1 mM.
Namalwa cells were grown by incubation in culture medium overnight. Cells were harvested by centrifugation in a tabletop centrifuge (1200 RPM for 5 minutes), and then resuspended in phosphate buffered sucrose to a concentration of 1.3×10^7 cells/mL. […]
The electroporated cells were suspended in 10 mLs of culture medium and incubated overnight. Dead cells and debris were removed after 24 hours using a MACS Dead Cell Removal kit (Miltenyi Biotec, Auburn, Calif.). Cells were resuspended in 10 mL of culture medium and incubated for an additional 24 hours.
Transfected cells were selected by adding G418 (Promega Corp., Madison, Wis.) to a final concentration of 1 mg/mL and incubating the cells for seven days.
The selected transfected cells were counted and resuspended to a concentration of 1×10^6 cell per mL in culture medium. 100 μl aliquots of cells were placed in the wells of a white-walled, white-bottomed 96-well plate (Corning, Inc., Corning, N.Y.). 1.0 μL of an IRM compound from Table 1 (prepared at 1 mM in 100% DMSO) was added to some cell aliquots so that the final concentration of IRM compound was 10 μM. As a positive control, some cell aliquots were incubated with Sendai virus instead of IRM compound. As a negative control, some cell aliquots were incubated with DMSO without IRM compound. In all cases, the cells were incubated for 18 hours.
The plates were equilibrated to room temperature before one volume of reconstituted LucLight Plus (Packard Instruments, Meriden, Conn.) was added to each aliquot of cells. Each well of the plate was read on an LJL Analyst (LJL Biosystems, Inc., Sunnyvale, Calif.) set with a 5 minute dark adapt. Results are shown in Table 6 and are expressed as fold increase of the IFN-αl—induced luciferase signal compared to a DMSO control.

TLR7 [2] = molecular target: T1, TLR7; assay: NFκB-luciferase reporter assay in HEK293 cells transfected with human TLR7 (HEK293-TLR7); format: cell-based; design: expressed in transfected cells; host or cells: HEK293 (ATCC CRL-1573), pIRES vector, G-418 selected; conditions: HEK293-TLR7, 10 μM IRM, 16 hours
Procedure: A compound was identified as increasing cellular activity mediated through a given TLR if it induced at least a two-fold increase in NFκB-induced luciferase signal compared to the control.
HEK293 medium was prepared from 90% Minimum Essential Medium (MEM) with 2 mM L-glutamine and Earle's Balanced Salt Solution (Invitrogen Corp., Rockville, Md.) adjusted to contain 1.5 g/L sodium bicarbonate, 0.1 mM non-essential amino acids, and 1.0 mM sodium pyruvate; 10% heat-inactivated fetal calf serum. HEK293 cells were cultured by incubating cells in HEK293 medium overnight at 37° C., 8% CO2.
The cells were co-transfected with (1) pIRES (BD Biosciences Clontech, Palo Alto, Calif.) either (a) unmodified (HEK293-vector), (b) containing an expressible human TLR7 gene (HEK293-TLR7), or (c) containing an expressible human TLR8 gene (HEK293-TLR8), and (2) NFκB-luc reporter (Stratagene, La Jolla, Calif.) in a 10:1 ratio with Fugene 6 transfection reagent (Roche Diagnostics Corp., Indianapolis, Ind.) following the manufacturer's instructions.
The cells were stimulated with 1 μL of IRM compounds at 1 mM in DMSO (final IRM concentration of 10 μM) or 1 μL DMSO as a control. The plates were then incubated an additional 16 hours at 37° C., 5% CO2. The luciferase signal was read using the LucLite kit (Packard Instrument Co., Meriden, Conn.). Luminescence was measured on an LMAX luminometer (Molecular Devices Corp., Sunnyvale, Calif.).

Compound	TLR7: fold increase of the IFN-α1-induced luciferase signal compared to a DMSO control (TLR7 [1])	TLR7: fold increase of NFκB-induced luciferase signal compared to a DMSO control (TLR7 [2])
CCOCc1nc2c(N)nc3ccccc3c2n1CC(C)C [IRM1, 2-(ethoxymethyl)-1-(2-methylpropyl)-1H-imidazo[4,5-c]quinolin-4-amine]	2.43 fold increase	4.05 fold increase
COCCc1nc2c(N)nc3ccccc3c2n1CCOCCN(C)C(=O)C1CCCCC1 [IRM3, N-(2-{2-[4-amino-2-(2-methoxyethyl)-1H-imidazo[4,5-c]quinolin-1-yl]ethoxy}ethyl)-N-methylcyclohexanecarboxamide]	2.86 fold increase	6.37 fold increase
CCCCc1nc2c(N)nc3ccccc3c2n1CCCCCS(C)(=O)=O [IRM6, 2-butyl-1-[5-(methylsulfonyl)pentyl]-1H-imidazo[4,5-c]quinolin-4-amine]	3.09 fold increase	8.46 fold increase
CCc1nc2c(N)nc3ccccc3c2n1CCCCNC(=O)C1CCCCC1 [IRM8, N-[4-(4-amino-2-ethyl-1H-imidazo[4,5-c]quinolin-1-yl)butyl]cyclohexanecarboxamide]	2.89 fold increase	6.04 fold increase
CCc1nc2c(N)nc3ccccc3c2n1CCCCSc1cc(Cl)cc(Cl)c1 [IRM14, 1-{4-[(3,5-dichlorophenyl)thio]butyl}-2-ethyl-1H-imidazo[4,5-c]quinolin-4-amine]	1.40 fold increase	0.67 fold increase
CCOCc1nc2c(N)nc3c(c2n1CC(C)(C)O)CCCC3 [IRM16, 4-amino-2-ethoxymethyl-α,α-dimethyl-6,7,8,9-tetrahydro-1H-imidazo[4,5-c]quinoline-1-ethanol]	2.96 fold increase	5.54 fold increase
COCCc1nc2c(N)nc3ccccc3c2n1CCOCCNC(=O)Nc1ccccc1 [IRM19, N-(2-{2-[4-amino-2-(2-methoxyethyl)-1H-imidazo[4,5-c]quinolin-1-yl)ethoxy}ethyl)-N′-phenylurea]	2.63 fold increase	2.45 fold increase
CCC(C)NC(=S)NCCn1c(CCOC)nc2c(N)nc3ccccc3c21 (stereo not drawn) [IRM21, N-{2-[4-amino-2-(2-methoxyethyl)-1H-imidazo[4,5-c]quinolin-1-yl]ethyl}-N′-sec-butylthiourea]	3.48 fold increase	7.08 fold increase
COCCc1nc2c(N)nc3c(c2n1CC(C)(C)NS(C)(=O)=O)CCCC3 [IRM22, N-{2-[4-amino-2-(2-methoxyethyl)-6,7,8,9-tetrahydro-1H-imidazo[4,5-c]quinolin-1-yl]-1,1-dimethylethyl}methanesulfonamide]	3.59 fold increase	6.57 fold increase
